Measurements from patent US4399290A, “Optically active tert-alkyl 7-(2-oxo-5-carbonyloxypyrrolidinyl)heptanoates” (E. I. Du Pont de Nemours and Company, priority 1981, dated 1983).

Key:
[1] = system: stomach (necrosis and inflammation caused by ethanol); experiment: oral cytoprotection against absolute-ethanol-induced stomach necrosis and inflammation (similar to Robert, U.S. Pat. No. 4,097,603); format: in vivo, rat (fasted, male); conditions: for cytoprotective potency relative to racemic form: optical isomer versus racemic form, Table 1 data; for Percent Protection, 2 mg/kg 1 hr: 2 mg/kg oral, 1 hour interval between administration of compound and subsequent administration of ethanol
Experimental: The data of Table 1 are from tests similar to one described by Robert [U.S. Pat. No. 4,097,603 (1978)] in which fasted, male rats were treated with 8-azaprostanoids orally. Then, at various times later they were treated orally with 1.0 ml of absolute ethanol. The rats were sacrificed after ethanol administration and the stomachs were removed, inspected, and rated. The ED50 values of Table 1 represent the doses of 8-azaprostanoids that gave 50% protection from the necrosis and inflammation of the stomach caused by ethanol. For comparison, values are given for the natural prostaglandin, PGE1, and for racemic 7-[2-oxo-5(4,4-difluoro-3-hydroxy-1n-dec-1(E)-enyl)-1-pyrrolidinyl]heptanoic acid, which is identified in Table 1 as compound 8. The corresponding racemic tert-butyl ester is identified as 7. The structures of 7 and 8, each of which is a mixture of 4 optical isomers, are as follows: [drawing 18]
*"1 hr" refers to the 1 hour interval between administration of compound
and subsequent administration of ethanol.
**"Peak Time" refers to the interval between administration of compound
and administration of ethanol at which greatest protection is observed.

PGE1; rat stomach strips = experiment: antagonism of PGE1 in in vitro tests on rat stomach strips; conditions: relative to racemic form 7
Text: Some differences in biological activities of the racemic forms and different optical isomers of these 8-azaprostanoids can be seen in the data presented in Table 1.

For `CCCCCCC(F)(F)[C@H](O)/C=C/[C@H]1CCC(=O)N1CCCCCCC(=O)O` (single isomer, unassigned) [8l(15R), 7-[2-oxo-5(R or S)-5-(4,4-difluoro-3(R or S)-3-hydroxy-ln-dec-1(E)enyl)-1-pyrrolidinyl]heptanoic acid], the “cytoprotective potency relative to racemic form” value [1] was “more potent as a cytoprotective agent than its racemic form 8”.

With `CCCCCCC(F)(F)C(O)/C=C/C1CCC(=O)N1CCCCCCC(=O)OC(C)(C)C` (single isomer, unassigned) [7d(15R,S), tert-butyl 7-[2-oxo-5-(S or R)-5-(4,4-difluoro-3(R,S)hydroxy-ln-dec-1(E)-enyl)-1-pyrrolidinyl]heptanoate] the “Percent Protection, 2 mg/kg 1 hr” value [1] was -5%, the “cytoprotective potency relative to racemic form” value [1] was “less potent than its racemic form 7” and the “potency as an antagonist of PGE1” value (PGE1; rat stomach strips) was “more potent than 7 as an antagonist of PGE1”.

`CCCCCCC(F)(F)[C@@H](O)/C=C/[C@H]1CCC(=O)N1CCCCCCC(=O)O` (single isomer, unassigned) [8l(15S), 7-[2-oxo-5(R or S)-5-(4,4-difluoro-3(R or S)-3-hydroxy-ln-dec-1(E)enyl)-1-pyrrolidinyl]heptanoic acid] was tested, and the “Peak Time” value ([1]; interval between administration of compound and of ethanol at which greatest protection is observed) was 15 min.

`CCCCCCC(F)(F)C(O)/C=C/C1CCC(=O)N1CCCCCCC(=O)OC(C)(C)C` (single isomer, unassigned) [7l(15R,S), tert-butyl 7-[2-oxo-5(R or S)-5-(4,4-difluoro-3(R,S)hydroxy-ln-dec-1(E)-enyl)-1-pyrrolidinyl]heptanoate] was tested, and the “Percent Protection, 2 mg/kg 1 hr” value [1] was 59%.
